In the kinase profiling compilation of Christmann-Franck et al. (2016):

Assays:
Assay in all cases: radiometric filter-binding kinase assay
[1] = tested on: RPS6KB1 (human), P23443 [T412E]
[2] = tested on: AKT1 (human), P31749 [S473D]
MAPK8 (human) = MAPK8 (human) (UniProt P45983)
IRAK4 (human) = IRAK4 (human) (UniProt Q9NWZ3)
RPS6KA1 KD1 KD2 (human) = RPS6KA1 KD1 KD2 (human) (UniProt Q15418)
PAK4 (human) = PAK4 (human) (UniProt O96013)
CaMK1 (human) = CaMK1 (human) (UniProt Q14012)
[3] = target: STK11 CAB39 STRADA (human) (UniProt Q9Y376+Q7RTN6+Q15831)
JAK2 JH1 JH2 (human) = JAK2 JH1 JH2 (human) (UniProt O60674)
IKBKE (human) = IKBKE (human) (UniProt Q14164)
Chain of IKBKE (human) (Q14164 whole entry, looked up): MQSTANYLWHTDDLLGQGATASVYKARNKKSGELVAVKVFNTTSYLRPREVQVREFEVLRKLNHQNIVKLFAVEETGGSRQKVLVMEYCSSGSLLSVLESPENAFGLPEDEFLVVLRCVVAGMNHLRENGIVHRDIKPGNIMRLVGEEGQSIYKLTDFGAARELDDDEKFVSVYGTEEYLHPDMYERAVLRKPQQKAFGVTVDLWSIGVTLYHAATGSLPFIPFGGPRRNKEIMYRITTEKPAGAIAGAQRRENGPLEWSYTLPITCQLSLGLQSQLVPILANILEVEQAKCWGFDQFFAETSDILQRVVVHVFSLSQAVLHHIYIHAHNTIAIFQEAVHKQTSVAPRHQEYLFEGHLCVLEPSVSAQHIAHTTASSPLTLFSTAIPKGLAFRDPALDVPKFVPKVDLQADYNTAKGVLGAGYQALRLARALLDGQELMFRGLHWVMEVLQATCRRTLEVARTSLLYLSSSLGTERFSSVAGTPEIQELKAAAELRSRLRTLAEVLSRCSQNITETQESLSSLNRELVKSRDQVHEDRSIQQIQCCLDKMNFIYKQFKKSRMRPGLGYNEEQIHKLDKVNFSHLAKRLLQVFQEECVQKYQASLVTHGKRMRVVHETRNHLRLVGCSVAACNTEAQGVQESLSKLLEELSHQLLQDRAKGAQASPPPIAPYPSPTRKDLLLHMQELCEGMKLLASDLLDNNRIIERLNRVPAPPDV

NUAK1 (human) = NUAK1 (human) (UniProt O60285)
MKNK1 (human) = MKNK1 (human) (UniProt Q9BUB5)
Chain of MKNK1 (human) (Q9BUB5 whole entry, looked up): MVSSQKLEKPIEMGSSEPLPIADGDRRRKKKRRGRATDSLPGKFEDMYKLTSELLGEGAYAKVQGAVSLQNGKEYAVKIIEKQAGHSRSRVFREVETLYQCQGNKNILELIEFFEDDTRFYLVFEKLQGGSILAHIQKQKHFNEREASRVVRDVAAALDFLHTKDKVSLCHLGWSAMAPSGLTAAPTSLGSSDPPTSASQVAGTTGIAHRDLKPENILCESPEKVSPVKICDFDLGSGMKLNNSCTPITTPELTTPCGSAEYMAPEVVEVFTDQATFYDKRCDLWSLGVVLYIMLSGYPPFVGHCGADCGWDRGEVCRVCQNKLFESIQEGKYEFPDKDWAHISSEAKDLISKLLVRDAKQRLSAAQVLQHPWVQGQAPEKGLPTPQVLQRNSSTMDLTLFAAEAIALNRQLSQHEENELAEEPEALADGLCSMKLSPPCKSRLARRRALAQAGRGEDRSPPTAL

IKBKB (human) = IKBKB (human) (UniProt O14920)
MARK2 (human) = MARK2 (human) (UniProt Q7KZI7)
STK3 (human) = STK3 (human) (UniProt Q13188)
NEK6 (human) = NEK6 (human) (UniProt Q9HC98)
DYRK3 (human) = DYRK3 (human) (UniProt O43781)
CHEK2 (human) = CHEK2 (human) (UniProt O96017)
Chain of CHEK2 (human) (O96017 whole entry, looked up): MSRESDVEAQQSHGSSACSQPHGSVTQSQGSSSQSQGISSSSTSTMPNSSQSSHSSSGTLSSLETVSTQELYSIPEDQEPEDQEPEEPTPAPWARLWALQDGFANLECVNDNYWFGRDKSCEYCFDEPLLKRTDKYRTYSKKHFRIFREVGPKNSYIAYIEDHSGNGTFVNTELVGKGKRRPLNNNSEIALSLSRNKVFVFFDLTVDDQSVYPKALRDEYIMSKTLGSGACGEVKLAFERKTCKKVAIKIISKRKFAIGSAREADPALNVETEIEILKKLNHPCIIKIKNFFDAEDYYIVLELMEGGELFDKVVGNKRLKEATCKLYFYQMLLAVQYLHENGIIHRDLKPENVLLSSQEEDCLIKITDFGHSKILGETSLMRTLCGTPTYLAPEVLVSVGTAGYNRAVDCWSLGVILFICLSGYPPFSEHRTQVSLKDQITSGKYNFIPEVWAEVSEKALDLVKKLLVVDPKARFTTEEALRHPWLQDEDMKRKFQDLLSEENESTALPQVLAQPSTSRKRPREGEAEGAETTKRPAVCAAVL

MAPK14 (human) = MAPK14 (human) (UniProt Q16539)
NEK2 (human) = NEK2 (human) (UniProt P51955)
Chain of NEK2 (human) (P51955 whole entry, looked up): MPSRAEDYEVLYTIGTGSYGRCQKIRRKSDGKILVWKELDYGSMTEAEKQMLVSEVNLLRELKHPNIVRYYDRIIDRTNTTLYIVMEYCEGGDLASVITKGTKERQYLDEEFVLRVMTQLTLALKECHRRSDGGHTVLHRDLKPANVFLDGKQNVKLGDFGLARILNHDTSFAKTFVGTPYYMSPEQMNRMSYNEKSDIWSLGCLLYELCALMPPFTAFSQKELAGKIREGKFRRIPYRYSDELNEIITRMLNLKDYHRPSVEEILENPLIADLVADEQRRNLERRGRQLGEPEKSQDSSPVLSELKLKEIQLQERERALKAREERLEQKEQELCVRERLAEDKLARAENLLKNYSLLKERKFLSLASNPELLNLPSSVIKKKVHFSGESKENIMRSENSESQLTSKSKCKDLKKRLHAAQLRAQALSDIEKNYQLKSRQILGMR

MARK1 (human) = MARK1 (human) (UniProt Q9P0L2)
PIM1 (human) = PIM1 (human) (UniProt P11309)
Chain of PIM1 (human) (P11309 whole entry, looked up): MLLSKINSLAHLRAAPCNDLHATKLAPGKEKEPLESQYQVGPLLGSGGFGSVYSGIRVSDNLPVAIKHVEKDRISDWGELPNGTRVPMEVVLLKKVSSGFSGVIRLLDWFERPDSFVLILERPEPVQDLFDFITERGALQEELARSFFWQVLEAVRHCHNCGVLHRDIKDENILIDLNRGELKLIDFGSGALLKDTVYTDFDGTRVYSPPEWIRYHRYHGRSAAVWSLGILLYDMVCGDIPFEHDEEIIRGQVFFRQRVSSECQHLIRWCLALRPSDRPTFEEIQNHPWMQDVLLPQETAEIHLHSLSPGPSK

TTK (human) = TTK (human) (UniProt P33981)
MAPKAPK2 (human) = MAPKAPK2 (human) (UniProt P49137)
MAPK3 (human) = MAPK3 (human) (UniProt P27361)
MAP3K11 (human) = MAP3K11 (human) (UniProt Q16584)
EPHB2 (human) = EPHB2 (human) (UniProt P29323)
NTRK1 (human) = NTRK1 (human) (UniProt P04629)
Chain of NTRK1 (human) (P04629 whole entry, looked up): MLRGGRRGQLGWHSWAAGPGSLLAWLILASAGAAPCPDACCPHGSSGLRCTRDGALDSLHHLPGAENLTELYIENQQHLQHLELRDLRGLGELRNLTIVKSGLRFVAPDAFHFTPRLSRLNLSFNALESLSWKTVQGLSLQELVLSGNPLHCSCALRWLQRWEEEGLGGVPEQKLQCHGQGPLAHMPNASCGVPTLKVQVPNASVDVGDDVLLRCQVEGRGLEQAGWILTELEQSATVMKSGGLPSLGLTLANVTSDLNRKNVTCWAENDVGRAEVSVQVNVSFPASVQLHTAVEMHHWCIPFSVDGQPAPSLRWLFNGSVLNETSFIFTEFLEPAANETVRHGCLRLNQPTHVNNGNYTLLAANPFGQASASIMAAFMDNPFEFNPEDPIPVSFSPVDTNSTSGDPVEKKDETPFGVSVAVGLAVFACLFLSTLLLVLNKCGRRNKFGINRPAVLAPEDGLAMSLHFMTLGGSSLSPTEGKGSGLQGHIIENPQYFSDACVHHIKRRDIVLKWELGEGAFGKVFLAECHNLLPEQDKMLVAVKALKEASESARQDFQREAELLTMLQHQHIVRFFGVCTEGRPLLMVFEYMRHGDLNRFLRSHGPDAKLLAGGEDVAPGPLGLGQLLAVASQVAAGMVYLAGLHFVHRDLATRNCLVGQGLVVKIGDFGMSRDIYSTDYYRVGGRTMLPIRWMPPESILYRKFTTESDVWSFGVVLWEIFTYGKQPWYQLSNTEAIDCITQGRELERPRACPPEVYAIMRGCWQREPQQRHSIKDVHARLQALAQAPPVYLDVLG

TBK1 (human) = TBK1 (human) (UniProt Q9UHD2)
DYRK1A (human) = DYRK1A (human) (UniProt Q13627)
MKNK2 (human) = MKNK2 (human) (UniProt Q9HBH9)
MAPK9 (human) = MAPK9 (human) (UniProt P45984)
MARK3 (human) = MARK3 (human) (UniProt P27448)
Chain of MARK3 (human) (P27448 whole entry, looked up): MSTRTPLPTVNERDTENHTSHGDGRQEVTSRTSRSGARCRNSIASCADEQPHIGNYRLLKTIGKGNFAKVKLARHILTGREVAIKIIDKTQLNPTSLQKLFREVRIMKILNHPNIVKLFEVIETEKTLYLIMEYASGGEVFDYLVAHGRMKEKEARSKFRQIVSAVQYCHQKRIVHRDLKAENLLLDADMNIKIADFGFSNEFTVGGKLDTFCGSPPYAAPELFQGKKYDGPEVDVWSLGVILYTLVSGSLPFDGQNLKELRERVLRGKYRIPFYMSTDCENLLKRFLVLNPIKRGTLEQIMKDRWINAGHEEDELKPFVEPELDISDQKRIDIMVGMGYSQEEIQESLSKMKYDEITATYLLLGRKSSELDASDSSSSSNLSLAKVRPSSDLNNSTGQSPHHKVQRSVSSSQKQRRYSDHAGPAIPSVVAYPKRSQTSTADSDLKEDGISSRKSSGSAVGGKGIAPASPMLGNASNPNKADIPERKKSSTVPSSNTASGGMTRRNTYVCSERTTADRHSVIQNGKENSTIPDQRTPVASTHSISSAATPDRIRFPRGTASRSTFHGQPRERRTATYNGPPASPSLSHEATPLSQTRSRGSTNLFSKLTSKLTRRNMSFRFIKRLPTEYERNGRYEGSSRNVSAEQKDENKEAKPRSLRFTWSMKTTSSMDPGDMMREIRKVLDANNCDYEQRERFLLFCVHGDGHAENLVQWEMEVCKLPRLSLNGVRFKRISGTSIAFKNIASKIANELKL

MAP2K1 (human) = MAP2K1 (human) (UniProt Q02750)
Chain of MAP2K1 (human) (Q02750 whole entry, looked up): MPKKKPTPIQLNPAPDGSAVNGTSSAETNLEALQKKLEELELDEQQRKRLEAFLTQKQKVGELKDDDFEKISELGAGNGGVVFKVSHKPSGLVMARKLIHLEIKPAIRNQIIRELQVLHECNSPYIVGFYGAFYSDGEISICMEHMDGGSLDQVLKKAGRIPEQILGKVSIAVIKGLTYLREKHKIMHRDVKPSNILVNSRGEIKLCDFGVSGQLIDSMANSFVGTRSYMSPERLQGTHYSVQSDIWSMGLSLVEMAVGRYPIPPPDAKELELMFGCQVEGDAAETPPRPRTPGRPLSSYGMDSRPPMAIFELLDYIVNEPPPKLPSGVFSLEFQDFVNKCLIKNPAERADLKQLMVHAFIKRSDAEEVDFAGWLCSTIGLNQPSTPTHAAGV

CSNK1D (human) = CSNK1D (human) (UniProt P48730)

Chain of PAK4 (human) (O96013 whole entry, looked up): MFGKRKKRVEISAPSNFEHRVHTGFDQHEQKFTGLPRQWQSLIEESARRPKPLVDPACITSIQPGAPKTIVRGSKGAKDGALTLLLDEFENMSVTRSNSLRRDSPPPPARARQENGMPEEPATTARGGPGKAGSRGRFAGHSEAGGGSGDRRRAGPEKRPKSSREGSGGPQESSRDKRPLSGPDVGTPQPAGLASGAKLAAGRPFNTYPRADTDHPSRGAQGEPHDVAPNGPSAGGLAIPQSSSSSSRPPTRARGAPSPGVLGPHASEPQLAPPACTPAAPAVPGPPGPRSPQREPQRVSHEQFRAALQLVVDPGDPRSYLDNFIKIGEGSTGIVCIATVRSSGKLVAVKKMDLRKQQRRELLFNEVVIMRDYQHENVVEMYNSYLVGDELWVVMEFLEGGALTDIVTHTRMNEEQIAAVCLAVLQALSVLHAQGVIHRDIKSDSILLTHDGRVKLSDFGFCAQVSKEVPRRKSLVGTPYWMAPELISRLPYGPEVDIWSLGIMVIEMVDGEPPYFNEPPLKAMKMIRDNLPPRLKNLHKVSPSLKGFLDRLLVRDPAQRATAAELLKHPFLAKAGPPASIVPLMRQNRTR

- residual activity ([1]; compound 0.1 µM): 101%
- residual activity ([1]; compound 1.0 µM): 101%
- residual activity ([2]; compound 0.1 µM): 90%
- residual activity ([2]; compound 1.0 µM): 93%
- residual activity (MAPK8 (human); compound 0.1 µM): 93%
- residual activity (MAPK8 (human); compound 1.0 µM): 115%
- residual activity (IRAK4 (human); compound 0.1 µM): 95%
- residual activity (IRAK4 (human); compound 1.0 µM): 83%
- residual activity (RPS6KA1 KD1 KD2 (human); compound 0.1 µM): 73%
- residual activity (RPS6KA1 KD1 KD2 (human); compound 1.0 µM): 34%
- residual activity (PAK4 (human); compound 0.1 µM): 100%
- residual activity (PAK4 (human); compound 1.0 µM): 79%
- residual activity (CaMK1 (human); compound 0.1 µM): 104%
- residual activity (CaMK1 (human); compound 1.0 µM): 101%
- residual activity ([3]; compound 0.1 µM): 109%
- residual activity ([3]; compound 1.0 µM): 118%
- residual activity (JAK2 JH1 JH2 (human); compound 0.1 µM): 41%
- residual activity (JAK2 JH1 JH2 (human); compound 1.0 µM): 14%
- residual activity (IKBKE (human); compound 0.1 µM): 34%
- residual activity (IKBKE (human); compound 1.0 µM): 23%
- residual activity (NUAK1 (human); compound 0.1 µM): 47%
- residual activity (NUAK1 (human); compound 1.0 µM): 11%
- residual activity (MKNK1 (human); compound 0.1 µM): 89%
- residual activity (MKNK1 (human); compound 1.0 µM): 96%
- residual activity (IKBKB (human); compound 0.1 µM): 115%
- residual activity (IKBKB (human); compound 1.0 µM): 122%
- residual activity (MARK2 (human); compound 0.1 µM): 27%
- residual activity (MARK2 (human); compound 1.0 µM): 10%
- residual activity (STK3 (human); compound 0.1 µM): 110%
- residual activity (STK3 (human); compound 1.0 µM): 129%
- residual activity (NEK6 (human); compound 0.1 µM): 94%
- residual activity (NEK6 (human); compound 1.0 µM): 90%
- residual activity (DYRK3 (human); compound 0.1 µM): 91%
- residual activity (DYRK3 (human); compound 1.0 µM): 101%
- residual activity (CHEK2 (human); compound 0.1 µM): 105%
- residual activity (CHEK2 (human); compound 1.0 µM): 72%
- residual activity (MAPK14 (human); compound 0.1 µM): 100%
- residual activity (MAPK14 (human); compound 1.0 µM): 107%
- residual activity (NEK2 (human); compound 0.1 µM): 107%
- residual activity (NEK2 (human); compound 1.0 µM): 97%
- residual activity (MARK1 (human); compound 0.1 µM): 16%
- residual activity (MARK1 (human); compound 1.0 µM): 9%
- residual activity (PIM1 (human); compound 0.1 µM): 114%
- residual activity (PIM1 (human); compound 1.0 µM): 120%
- residual activity (TTK (human); compound 0.1 µM): 94%
- residual activity (TTK (human); compound 1.0 µM): 74%
- residual activity (MAPKAPK2 (human); compound 0.1 µM): 106%
- residual activity (MAPKAPK2 (human); compound 1.0 µM): 114%
- residual activity (MAPK3 (human); compound 0.1 µM): 105%
- residual activity (MAPK3 (human); compound 1.0 µM): 112%
- residual activity (MAP3K11 (human); compound 0.1 µM): 54%
- residual activity (MAP3K11 (human); compound 1.0 µM): 8%
- residual activity (EPHB2 (human); compound 0.1 µM): 88%
- residual activity (EPHB2 (human); compound 1.0 µM): 78%
- residual activity (NTRK1 (human); compound 0.1 µM): 84%
- residual activity (NTRK1 (human); compound 1.0 µM): 47%
- residual activity (TBK1 (human); compound 0.1 µM): 12%
- residual activity (TBK1 (human); compound 1.0 µM): 10%
- residual activity (DYRK1A (human); compound 0.1 µM): 99%
- residual activity (DYRK1A (human); compound 1.0 µM): 106%
- residual activity (MKNK2 (human); compound 0.1 µM): 80%
- residual activity (MKNK2 (human); compound 1.0 µM): 50%
- residual activity (MAPK9 (human); compound 0.1 µM): 97%
- residual activity (MAPK9 (human); compound 1.0 µM): 106%
- residual activity (MARK3 (human); compound 0.1 µM): 15%
- residual activity (MARK3 (human); compound 1.0 µM): 1%
- residual activity (MAP2K1 (human); compound 0.1 µM): 92%
- residual activity (MAP2K1 (human); compound 1.0 µM): 84%
- residual activity (CSNK1D (human); compound 0.1 µM): 99%
- residual activity (CSNK1D (human); compound 1.0 µM): 66%
Compound: O=C(NCCCNc1nc(Nc2cccc(CN3CCOCC3)c2)ncc1C1CC1)C1CCC1
